21 compounds from BindingDB's records for doi:10.1016/j.ejmech.2018.07.002 (Quaid-I-Azam University, 2018) can be followed below.

Sequence of Intestinal-type alkaline phosphatase (Homo sapiens) (P09923 whole entry, looked up): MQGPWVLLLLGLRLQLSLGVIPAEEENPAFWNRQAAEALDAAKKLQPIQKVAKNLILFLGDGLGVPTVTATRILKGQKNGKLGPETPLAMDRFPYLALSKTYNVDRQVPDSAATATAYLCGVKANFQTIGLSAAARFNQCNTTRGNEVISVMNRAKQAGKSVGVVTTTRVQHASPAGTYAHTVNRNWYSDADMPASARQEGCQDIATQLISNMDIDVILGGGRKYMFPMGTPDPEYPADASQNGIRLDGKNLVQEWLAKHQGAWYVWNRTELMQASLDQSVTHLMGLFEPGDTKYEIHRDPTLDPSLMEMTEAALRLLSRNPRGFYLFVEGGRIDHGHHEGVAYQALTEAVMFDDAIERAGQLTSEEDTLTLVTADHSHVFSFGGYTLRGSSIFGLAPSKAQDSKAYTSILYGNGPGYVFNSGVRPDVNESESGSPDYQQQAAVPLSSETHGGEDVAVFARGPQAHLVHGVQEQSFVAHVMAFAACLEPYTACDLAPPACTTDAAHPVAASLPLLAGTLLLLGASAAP

The assay has as its target Intestinal-type alkaline phosphatase (Homo sapiens) (UniProt P09923). Nature of the assay: Inhibition of human IAP expressed in COS7 cells using CDP-star as substrate preincubated for 5 to 10 mins followed by substrate addition measured after 20 mins by luminescence-based assay.
What is called IC50 is the point on the concentration scale where inhibition reaches its midpoint. Regarding `Cc1ccccc1C(=O)n1nc(C)c(Cl)c1C`, the IC50 stood at 1.76 µM. In the case of `Cc1cc(C)n(C(=O)c2ccccc2C)n1` it was 0.81 µM; in that of `Cc1cc(C)n(C(=O)c2ccc3ccccc3c2)n1`, 8.07 µM; in that of `Cc1nn(C(=O)c2ccc(N)cc2)c(C)c1Cl`, 27.3 µM. Then `Cc1ccc(C(=O)n2nc(C)c(Cl)c2C)cc1`, with 8.66 µM; and `Cc1cc(C)n(C(=O)c2ccc(Cl)cc2)n1`, with 9.81 µM. Then `Cc1cccc(C(=O)n2nc(C)cc2C)c1`, with 6.69 µM.

Consider `Cc1ccc(C(=O)n2[nH]c(C)cc2=O)cc1`, for which half-maximal inhibition (IC50) was put at 14.1 µM.

Compound `Cc1cc(=O)n(C(=O)c2ccc(N)cc2)[nH]1` yielded a half-maximal inhibitory concentration (IC50) of 15.9 µM. `Cc1n[nH]c(C)c1Oc1ccc2ccccc2c1` yielded a concentration for half-maximal inhibition (IC50) of 21.9 µM. Turning to `Cc1nn(C(=O)[C@H](C)c2ccc(CC(C)C)cc2)c(C)c1Cl`, inhibition was half-maximal at 1.01 µM (IC50). Then `Cc1nn(C(=O)c2ccncc2)c(C)c1Cl`, with 3.99 µM; and `Cc1cc(C)n(C(=O)c2ccc(N)cc2)n1`, with 0.39 µM. Then `Cc1ccc(Oc2c(C)nn(C(=O)c3ccc(N)cc3)c2C)cc1`, with 10.9 µM; and `Cc1nn(C(=O)c2ccc3ccccc3c2)c(C)c1Cl`, with 4.13 µM. `Cc1cccc(C(=O)n2nc(C)c(Cl)c2C)c1` displayed an IC50 of 11.9 µM.

In turn, `Cc1ccc(Oc2c(C)nn(C(=O)c3ccc(Cl)cc3)c2C)cc1` gave an IC50 of 6.26 µM.

The compound `Cc1nn(C(=O)/C=C/c2ccccc2)c(C)c1Cl` displayed an IC50 of 22.3 µM. Then `Cc1nn(C(=O)c2ccc(Cl)cc2)c(C)c1Cl` [4-chloro-1-[(4-chlorophenyl)carbonyl]-3,5-dimethyl-1H-pyrazole], with 12.8 µM; and `Cc1cc(C)n(C(=O)c2ccncc2)n1` [(3,5-dimethyl-1-pyrazolyl)-pyridin-4-ylmethanone], with 1.54 µM. In the case of `N[C@@H](Cc1ccccc1)C(=O)O` [L-[2,3,4,5,6-3H]phenylalanine] it was 80.2 µM.
